In BindingDB's records for doi:10.1021/cb100387r (Riken Advanced Science Institute, 2011):

These molecules were tested against Protein disulfide-isomerase (Homo sapiens, UniProt P07237) (assay: Reductase Activity Assay). Details: pH 7.
Description: Reductase activity was assayed by measuring the PDI-catalyzed reduction of insulin in the presence of DTT, thus measuring the aggregation of reduced insulin chains at 650nm.

Sequence of Protein disulfide-isomerase (P07237 whole entry): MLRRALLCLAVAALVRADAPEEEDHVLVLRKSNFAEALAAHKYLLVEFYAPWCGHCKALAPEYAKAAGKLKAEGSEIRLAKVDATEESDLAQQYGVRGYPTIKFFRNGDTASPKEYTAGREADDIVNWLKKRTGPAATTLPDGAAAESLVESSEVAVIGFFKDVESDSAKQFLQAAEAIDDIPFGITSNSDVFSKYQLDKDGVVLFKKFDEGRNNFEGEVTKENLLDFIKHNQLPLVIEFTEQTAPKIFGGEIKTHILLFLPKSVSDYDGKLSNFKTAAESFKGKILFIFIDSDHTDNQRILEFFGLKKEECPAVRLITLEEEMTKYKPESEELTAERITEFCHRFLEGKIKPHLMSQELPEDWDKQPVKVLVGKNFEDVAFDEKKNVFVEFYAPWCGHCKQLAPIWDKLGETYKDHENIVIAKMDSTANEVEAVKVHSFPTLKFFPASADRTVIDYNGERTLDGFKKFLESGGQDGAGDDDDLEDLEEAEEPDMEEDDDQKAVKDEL

Row | Compound | IC50
1 | C/C1=C\CC(OC(=O)c2ccc(O)cc2)/C(C)=C/[C@@H](O)C(C)(C)CCC1 (stereo partly specified) [Juniferdin derivative, 1] | 156 nM
2 | COc1ccc(C(=O)OC2C/C=C(\C)CCCC(C)(C)[C@H](O)/C=C/2C)cc1 (stereo partly specified) [Juniferdin derivative, 2] | > 10000 nM
3 | CC(=O)Oc1ccc(C(=O)OC2C/C=C(\C)CCCC(C)(C)[C@H](OC(C)=O)/C=C/2C)cc1 (stereo partly specified) [Juniferdin derivative, 5] | 693 nM
4 | C/C1=C\CC(OC(=O)c2ccccc2)/C(C)=C/[C@@H](O)C(C)(C)CCC1 (stereo partly specified) [Juniferdin derivative, 6] | 4960 nM
5 | CCCCCCCCOC(=O)c1ccc(O)cc1 [Juniferdin derivative, 8] | > 10000 nM
6 | O=C(OC1CCCCCCC1)c1ccc(O)cc1 [Juniferdin derivative, 9] | 2850 nM
7 | O=C(OC1CCCCCCCCCCC1)c1ccc(O)cc1 [Juniferdin derivative, 10] | 565 nM
8 | C/C1=C\CC(OC(=O)c2ccc(O)cc2)[C@@]2(C)O[C@@H]2[C@@H](O)C(C)(C)CCC1 (stereo partly specified) [Juniferdin derivative, 14] | 2530 nM
9 | C/C1=C\[C@@H](O)C(C)(C)CCC[C@@](C)(O)[C@H](O)CC1OC(=O)c1ccc(O)cc1 (stereo partly specified) [Juniferdin derivative, 16] | > 10000 nM
10 | C/C1=C\CC(O)/C(C)=C/[C@@H](O)C(C)(C)CCC1 (stereo partly specified) [Juniferol, 12] | > 10000 nM

Now from value to molecule:

Row | IC50 | Compound
11 | 453 nM | CC(=O)O[C@@H]1/C=C(\C)C(OC(=O)c2ccc(O)cc2)C/C=C(\C)CCCC1(C)C (stereo partly specified) [Juniferdin derivative, 3]
12 | 627 nM | CC(=O)Oc1ccc(C(=O)OC2C/C=C(\C)CCCC(C)(C)[C@H](O)/C=C/2C)cc1 (stereo partly specified) [Juniferdin derivative, 4]
13 | 958 nM | C/C1=C\CC(OC(=O)c2ccc(F)cc2)/C(C)=C/[C@@H](O)C(C)(C)CCC1 (stereo partly specified) [Juniferdin derivative, 7]
14 | 167 nM | C/C1=C\[C@@H](O)C(C)(C)CCC[C@@]2(C)O[C@@H]2CC1OC(=O)c1ccc(O)cc1 (stereo partly specified) [Juniferdin derivative, 13]
15 | > 10000 nM | CC1(C)CCC[C@@]2(C)O[C@@H]2CC(OC(=O)c2ccc(O)cc2)[C@@]2(C)O[C@@H]2[C@H]1O (stereo partly specified) [Juniferdin derivative, 15]
16 | 1850 nM | C/C1=C\[C@@H](O)C(C)(C)CCC[C@](C)(O)[C@@H](O)CC1OC(=O)c1ccc(O)cc1 (stereo partly specified) [Juniferdin derivative, 17]
